Consider 62 compounds from a melting point compilation (Tetko et al.; mined from patent text by program, amines drawn as free bases though some values may be those of a salt).

A word on the melting point: it is the temperature of the solid-liquid transition.

In turn, `COc1ccc(-c2[nH]nc3c2C(=O)c2c(NC(=O)Cc4ccccc4)cccc2-3)cc1` showed a melting point of 280 °C.

In turn, `O=C1c2ccccc2N(c2ccccc2)CN1O` came in with a melting point of 156 to 160 °C.

For `CC1(C)Cc2ccsc2C=[N+]1[O-]`, the melting point lay in the range of 136 to 138 °C.

For the compound `N#Cc1cc(C(=O)c2ccncc2)ccc1O`, the melting point fell in the range of 310 to 311 °C.

`COc1cc(C(C)C)c2c(c1)S(=O)(=O)N(COC(=O)c1c(C)nn(-c3ccccc3)c1C)C2=O` showed a melting point of 167 to 169 °C.

Consider `CNC(=O)c1ccc(N2CCN(Cc3cnc4c(c3)[nH]c(=O)n3cccc43)CC2)c(Cl)c1`, for which the melting point is 260 to 266 °C.

In turn, `NC(=O)CCCN(CCCC1CCCCC1)C(=O)Nc1ccccc1` gave a melting point of 104 to 106 °C.

For `COc1cc(OC)nc(NC(=O)NS(=O)(=O)Nc2ccccc2C(O)C2CC2)n1` (configuration not stated), the melting point was 66 to 69 °C.

The compound `O=C1NC(=O)C(Cc2ccc(C(=O)COc3ccccc3)cc2)S1` (configuration not stated) returned a melting point of 170 to 174 °C.

As for `COc1cc([C@@H]2c3cc4c(cc3C=C[C@H]2C(=O)O)OCO4)cc(OC)c1OC` (relative stereo), the melting point is 177 to 180 °C.

Compound `OC(CCl)(CC(Cl)(Cl)Cl)c1cc(Cl)cc(Cl)c1` (configuration not stated) had a melting point of 69 to 70.5 °C.

As for `Cc1ccccc1Oc1ccccc1C(=O)O`, the melting point fell in the range of 133 to 134 °C.

Compound `COc1cc(C2C3=C(COC3=O)N(Cc3ccc([N+](=O)[O-])cc3)c3cc4c(cc32)OCO4)cc(OC)c1OC` (configuration not stated) showed a melting point of 240 °C.

Regarding `O=C(O)C1(CSc2ccc(Oc3ccc(Br)cc3)cc2)CCOCC1`, the melting point was found to be 143 °C.

In turn, `COc1ncccc1-c1cccn2nc(Nc3ccc(C4CCN(CC(=O)N(C)C)CC4)cc3)nc12` displayed a melting point of 173 to 175 °C.

Compound `Nc1cccc(-c2ccc(OCC3CNC3)c3ccccc23)n1` gave a melting point of 88 to 110 °C.

With `Clc1ccc(N=Cc2ccc(-c3noc4ccccc34)cc2)cc1`, the melting point was in the range of 164 to 165 °C.

Compound `CCCc1nc(C(O)CCC)c(C(N)=O)n1Cc1ccc(-c2ccccc2C(=O)O)cc1` (configuration not stated) returned a melting point of 118 to 121 °C.

Turning to `CC(C)CCOc1ccc(OCn2cnc(Cl)c2Cl)cc1`, the melting point lay in the range of 105 to 108 °C.

`O=c1c2cnc3ccc(Cl)cc3c2on1-c1ccccc1` registered a melting point of 174 °C.

`C=CCNC(=O)N1CC(Oc2ccc(F)cc2)C1` came in with a melting point of 92 to 94 °C.

Compound `Cc1ccc2cccc(OCc3cccc(N(C)C(=O)CN4C(=O)c5ccccc5C4=O)c3C)c2n1` yielded a melting point of 158 to 161 °C.

`Cc1nc(Cc2ccccc2)c(CO)c(CO)c1O` returned a melting point of 158 to 159 °C.

In turn, `O=c1[nH]c2ccc(Cl)cc2n1CC1CCCCC1` displayed a melting point of 62 °C.

`O=C(O)CCCCCCCn1cc(-c2ccccc2)c(-c2ccccc2)nc1=O` yielded a melting point of 121 to 123 °C.

For the compound `CCCCc1nc(S(=O)(=O)c2ccc(OC)cc2)c(C(=O)O)n1Cc1cc2c(cc1Cl)OCO2`, the melting point turned out to be 154 °C.

As for `COc1ccc(C(=O)c2cc(F)ccc2F)c(O)c1Cl`, the melting point was in the range of 178 to 180 °C.

As to `COc1cc(Nc2c(C#N)cnc3cc(C#Cc4cnn(CCN5CCOCC5)c4)sc23)c(Cl)cc1Cl`, the melting point was > 200 °C.

Take `CCCC(=O)N(Cc1ccc(Cl)cc1Cl)c1c(NC(C)(C)CC)c(=O)c1=O`: the melting point is 112 to 117 °C.

As to `COC(=O)N1CCCC2(Cc3ccc(Br)cc3)C(=O)N(c3cc(Cl)nc(Cl)c3)C(=O)N12` (configuration not stated), the melting point was determined as 81 °C.

For the compound `COC(=O)[C@@]1(O)C[C@@H](OC(=O)c2ccccc2)[C@@H]2OC(C)(C)O[C@@H]2C1`, the melting point was 109 to 110 °C.

For `C[C@@H]1CCCN1CCc1ccc2cc(Br)ccc2n1`, the melting point fell in the range of 49 to 50 °C.

`CN(c1ccc(C2CCCCC2)cc1)c1nc(=O)c2cccnc2s1` came in with a melting point of 192 to 195 °C.

As for `Cc1ccc2c(c1)c(-c1ccc(F)cc1)c(C)n2-c1ccncc1`, the melting point was in the range of 172 to 174 °C.

The compound `CC(C)(C)NC(=O)[C@@H]1C[C@H](Br)CN1C(=O)OC(C)(C)C` displayed a melting point of 159 to 160 °C.

In the case of `COc1ccc(N2CC(=O)N(c3ccc(OC)nc3-c3ccc(N(C)C)cc3)CC2=O)cc1`, the melting point was 138 to 139 °C.

The compound `CCOC(=O)c1c(-c2ccccc2)c2c3ccccc3ccn2c1C` registered a melting point of 119 to 121 °C.

The compound `O=C1NC(=O)C(c2ccc(N=Cc3ccc(Cl)c(Cl)c3)cc2)S1` (configuration not stated) had a melting point of 216 to 218 °C.

`CNS(=O)(=O)c1sc2ccccc2c1CC(=O)O`: the melting point is 190 to 192 °C.

Regarding `O=S1(=O)NC(C2CCCCC2)Nc2ccc(S(=O)(=O)c3ccccc3)cc21` (configuration not stated), the melting point is 243 to 245 °C.

Compound `CCOC(=O)N1CCC(Nc2nc3cccnc3n2Cc2ccc(CO)o2)CC1` gave a melting point of 148 °C.

Take `O=C1N=C(N2CCOCC2)SC1c1cncc(-c2cc(F)c(O)c(C34CC5CC(CC(C5)C3)C4)c2)c1` (configuration not stated): the melting point was in the range of 310 to 317 °C.

In turn, `NS(=O)(=O)C1C=CC=CC1(CCNC(=O)C=Cc1cccs1)OCc1ccccc1` (configuration not stated) registered a melting point of 177 °C.

`OCc1cccc(-c2cc3nccnc3[nH]2)c1` had a melting point of 225 to 226 °C.

`CCC(CC)Nc1cc(C)nc2c1nc(C)n2-c1c(C)cc(C)cc1C` registered a melting point of 101 to 103 °C.

`CN(C)N1CSC(=CCc2cc(C(C)(C)C)c(O)c(C(C)(C)C)c2)C1=O` displayed a melting point of 181 to 186 °C.

In the case of `CSc1ccc(CCl)cc1C(F)(F)F`, the melting point lay within 65 to 66 °C.

In turn, `COc1ccccc1C=C1N=C(c2ccccc2)OC1=O` yielded a melting point of 159 to 161 °C.

`CN1CCN(C2c3ccccc3CC2O)CC1` (configuration not stated) returned a melting point of 132 °C.

The compound `C[C@@H]1Oc2ccccc2C(=O)[C@H]1n1ccnc1` (relative stereo) returned a melting point of 144 to 146 °C.

With `CN(C)c1ccc2nc(-c3csc4ccccc34)[nH]c(=O)c2c1`, the melting point was > 300 °C.

For the compound `C=C1CCN([C@H](C)[C@](O)(Cn2cncn2)c2ccc(F)cc2F)CC1`, the melting point fell in the range of 86 to 87 °C.

`COc1cccc2cc3c(c(-c4ccc5c(c4)OCO5)c12)C(=O)NC3=O` gave a melting point of 291 to 293 °C.

For `CS(=O)(=O)NCCCn1cnc(-c2ccc(F)cc2)c1-c1ccncc1`, the melting point was 186 to 187 °C.

`CC(C)n1cc(C(=O)O)c2ccc(C(F)(F)F)cc21` displayed a melting point of 177 to 178 °C.

Compound `Cn1nc(N)c2c(c1=O)OCCNC2Cc1ccccc1` (configuration not stated) came in with a melting point of 195 to 196 °C.

In the case of `CC(C)(C)C1(COc2ccc(Cl)cc2)OS(=O)NC1=O` (configuration not stated), the melting point lay in the range of 132 to 134 °C.

As to `Cc1nc2cc(C)c(OCC(C)(C)CS(N)(=O)=O)nn2n1`, the melting point lay in the range of 217 to 218 °C.

Regarding `CC(=O)Oc1ccc(-c2cnc(N(S(C)(=O)=O)S(C)(=O)=O)c(Cc3ccccc3)n2)cc1`, the melting point lay within 166 to 167 °C.

`CC[C@H](O)CC(=O)N[C@H]1CC[C@H](CCN2CCN(c3nccc4c3CCO4)CC2)CC1` returned a melting point of 158 °C.

In the case of `CC(C)NC(=O)c1ccccc1F`, the melting point was in the range of 76 to 78 °C.

Turning to `CCOCCn1cc2c(C3C(=O)Nc4ccc(Br)cc43)nc(Cl)nc2n1` (configuration not stated), the melting point fell in the range of 260 to 263 °C.
